Laboratory results reported in patent US10786690B2, “Amide derivatives of polycaffeoylquinic acids, process for producing same and uses thereof” (TEMISIS, priority 2016, dated 2020).

Test system: female Balb/c mice
Test: Imiquimod-induced psoriasis in Balb/c mice, PASI scoring
Format: in vivo, mouse
Experimental: The study is performed on 40 female Balb/c mice, weighing roughly 18-20 g and randomized by weight into 5 groups (n=8) as function of the treatments, under controlled temperature (24±2° C.) and humidity (50±20%) conditions and with a 12-hour reversed light cycle (light from 20:00 to 08:00) (food and water ad libitum).
The compounds to be tested are as follows: • Excipial® neutral ointment (control) • PAT1657 (octyl-isochlorogenamide A) incorporated at 1.33% or 2.67% by mass in Excipial® ointment • Aldara® cream containing 5% imiquimod, an inducer of psoriasis • Dermoval® cream containing 0.05% clobetasol propionate and used for topical treatment of psoriasis (reference product)
The treatment groups are distributed as follows: • Group 1: no induction of psoriasis but cutaneous application of neutral ointment from day 1 to day 10 and treatment with Excipial® neutral ointment from day 7 to day 10 (negative control) (EP/EP); • Group 2: induction of psoriasis by cutaneous application of Aldara® cream containing imiquimod from day 1 to day 10 and treatment with Excipial® neutral ointment from day 7 to day 10 (positive control) (ALD/EP); • Group 3: induction of psoriasis by cutaneous application of Aldara® cream containing imiquimod from day 1 to day 10 and treatment with neutral ointment containing 1.33% compound PAT1657 from day 7 to day 10 (ALD/PAT1657-1.33%); • Group 4: induction of psoriasis by cutaneous application of Aldara® cream containing imiquimod from day 1 to day 10 and treatment with neutral ointment containing 2.67% compound PAT1657 from day 7 to day 10 (ALD/PAT1657-2.67%); • Group 5: induction of psoriasis by cutaneous application of Aldara® cream containing imiquimod from day 1 to day 10 and treatment with Dermoval® cream from day 7 to day 10 (ALD/Dermoval®). Induction and Maintenance of Psoriasis
To perform the induction of psoriasis, it was necessary to remove the hair from the backs of the animals by shaving and plucking to have direct access to the skin tissue. Psoriasis was induced in all mice in groups 2 to 5 by daily cutaneous application for 10 days, from day 1 to day 10, of roughly 70 mg of Aldara® cream. The cream was applied to the shaved backs of the mice with a silk brush. For the mice in group 1, daily cutaneous application of Excipial® neutral ointment was carried out under the same conditions: roughly 70 mg was applied for 10 days, from day 1 to day 10, in the morning using a silk brush.
The ointments containing compound PAT1657 at the two doses to be tested, Excipial® neutral ointment and Dermoval® cream, were administered by cutaneous applications for 4 days, from day 7 to day 10, on the backs of the mice in the psoriasis induction region. For each application, roughly 100 mg of ointment or cream was applied with a silk brush, at least 4 hours after application of Aldara® cream or Excipial® neutral ointment for induction or not of psoriasis.
The psoriasis area and severity index (PASI) was calculated daily throughout the experiment from day 1 to day 11, based on the following three parameters: • Presence of erythema, i.e. skin redness, in the psoriasis induction region, scored as follows: 0=no or no further erythema; 1=mild erythema; 2=moderate erythema; 3=severe erythema; 4=very severe erythema. • Degree of induration, i.e. skin hardening and thickening, in the psoriasis induction region, scored as follows: 0=no or no further induration; 1=mild induration; 2=moderate induration; 3=severe induration; 4=very severe induration. • Degree of desquamation, i.e. presence of plaques on the skin surface, in the psoriasis induction region, scored as follows: 0=no or no further desquamation; 1=mild desquamation; 2=moderate desquamation; 3=severe desquamation; 4=very severe desquamation.
The psoriasis area and severity index is the sum of the scores for these three parameters. […]

[1] = day 8, 1.33% in ointment, vs ALD/EP group, p=0.001
[2] = day 10, 1.33% in ointment, vs ALD/EP group, p=0.001
[3] = day 10, 2.67% in ointment, vs ALD/EP group, p=0.001
[4] = day 11, 1.33% in ointment, vs ALD/EP group, p=0.001
[5] = day 11, 2.67% in ointment, vs ALD/EP group, p=0.001

CCCCCCCCNC(=O)[C@]1(O)C[C@@H](OC(=O)/C=C/c2ccc(O)c(O)c2)[C@@H](O)[C@H](OC(=O)/C=C/c2ccc(O)c(O)c2)C1 [PAT1657, (2E,2′E)-((1R,2S,3R,5S)-2,5-dihydroxy-5-(octylcarbamoyl)cyclohexane-1,3-diyl) bis(3-(3,4-dihydroxyphenyl)acrylate)]
significantly higher: mean score for degree of induration in the psoriasis induction region (day 9, 1.33% in ointment, vs ALD/Dermoval group, p=0.015) | mean score for degree of induration in the psoriasis induction region (day 10, 1.33% in ointment, vs ALD/Dermoval group, p=0.025) | mean score for degree of induration in the psoriasis induction region (day 10, 2.67% in ointment, vs ALD/Dermoval group, p=0.025) | mean score for degree of desquamation in the psoriasis induction region (day 11, 1.33% in ointment, vs ALD/Dermoval group)
significantly lower: mean psoriasis area and severity index (PASI) [1] | mean score for degree of induration in the psoriasis induction region [1] | mean score for presence of erythema in the psoriasis induction region [1] | mean score for degree of desquamation in the psoriasis induction region (day 8, 1.33% in ointment, vs ALD/EP group, p=0.007) | mean psoriasis area and severity index (PASI) (day 8, 2.67% in ointment, vs ALD/EP group, p=0.001) | mean score for degree of induration in the psoriasis induction region (day 8, 2.67% in ointment, vs ALD/EP group, p=0.004) | mean score for degree of desquamation in the psoriasis induction region (day 8, 2.67% in ointment, vs ALD/EP group, p=0.006) | mean score for presence of erythema in the psoriasis induction region (day 8, 2.67% in ointment, vs ALD/EP group, p=0.007) | mean psoriasis area and severity index (PASI) (day 9, day 10 and day 11, 1.33% in ointment, vs ALD/EP group, p=0.001) | mean psoriasis area and severity index (PASI) (day 9, day 10 and day 11, 2.67% in ointment, vs ALD/EP group, p=0.001) | mean score for degree of induration in the psoriasis induction region (day 9, 1.33% in ointment, vs ALD/EP group, p=0.001) | mean score for presence of erythema in the psoriasis induction region (day 9, 1.33% in ointment, vs ALD/EP group, p=0.002) | mean score for degree of induration in the psoriasis induction region (day 9, 2.67% in ointment, vs ALD/EP group, p=0.001) | mean score for presence of erythema in the psoriasis induction region (day 9, 2.67% in ointment, vs ALD/EP group, p=0.002) | mean score for degree of desquamation in the psoriasis induction region (day 9 and day 10, 1.33% in ointment, vs ALD/EP group, p=0.001) | mean score for degree of desquamation in the psoriasis induction region (day 9 and day 10, 2.67% in ointment, vs ALD/EP group, p=0.001) | mean score for presence of erythema in the psoriasis induction region (day 10, 1.33% in ointment, vs ALD/Dermoval group, p=0.037) | mean score for degree of induration in the psoriasis induction region [2] | mean score for presence of erythema in the psoriasis induction region [2] | mean score for degree of induration in the psoriasis induction region [3] | mean score for presence of erythema in the psoriasis induction region [3] | mean score for presence of erythema in the psoriasis induction region (day 11, 1.33% in ointment, vs ALD/Dermoval group, p=0.001) | mean score for degree of desquamation in the psoriasis induction region [4] | mean score for degree of induration in the psoriasis induction region [4] | mean score for presence of erythema in the psoriasis induction region [4] | mean score for presence of erythema in the psoriasis induction region (day 11, 2.67% in ointment, vs ALD/Dermoval group, p=0.014) | mean score for degree of desquamation in the psoriasis induction region [5] | mean score for degree of induration in the psoriasis induction region [5] | mean score for presence of erythema in the psoriasis induction region [5]
tended to be significantly higher: mean score for degree of desquamation in the psoriasis induction region (day 11, 2.67% in ointment, vs ALD/Dermoval group, p=0.059)
tendency to be significantly higher: mean score for degree of induration in the psoriasis induction region (day 11, 1.33% in ointment, vs ALD/Dermoval group, p=0.063)
tendency to be significantly lower: mean score for presence of erythema in the psoriasis induction region (day 10, 2.67% in ointment, vs ALD/Dermoval group, p=0.079)
